In US4361563A, “Pyridazinone-substituted benzimidazoles and salts” (priority 1978, dated 1982):
Counter-ions that a name gives are not always drawn.

Assays:
[1] = test system: cats; assay: Determination of the hypotensive and positive inotropic activity in the cat; type: in vivo; settings: for change in vivo at 0.5 mg/kg / change in vivo at 0.1 mg/kg: Felis catus, iv, read-out: Change of dp/dt in %
Method: TEST 2. DETERMINATION OF THE HYPOTENSIVE AND POSITIVE INOTROPIC ACTIVITY IN THE CAT
The tests were performed in cats which were anesthetized with pentobarbital sodium (40 mg/kg i.p.). The animals breathed spontaneously. The arterial blood pressure was measured in the aorta abdominalis by a Statham pressure transducer (P 23 Dc). The positive inotropic effect was determined by measuring the pressure in the left […] by means of a catheter tipmanometer (Millar PC 350 A). This contractility parameter dp/dtmax was registered by means of an analog differentiating circuit. The substances under test were injected into a vena femoralis. Physiological sodium […] solution or polydiol 200 was used as solvent.

[2] = test system: thrombocyte aggregation; assay: Determination of the thrombocyte aggregation according to Born and Cross (collagen-provoked, platelet-rich plasma); type: cell-based, healthy test persons; settings: collagen-induced aggregation
Method: TEST 1. DETERMINATION OF THE THROMBOCYTE AGGREGATION ACCORDING TO BORN AND CROSS [J. PHYSIOL. 170, 397 (1964)].
The thrombocyte aggregation was measured in platelet-rich plasma of healthy test persons. The decrease of the optical density was photometrically measured and recorded after addition of commercial collagen (Sigma, St. Louis, Mo., USA) which contained […] of collagen-fibrils per ml. The velocity of aggregation (Vmax) was determined by the angle of inclination of the density curve. The point of the curve, where the most light was transmitted, served for the determination of the optical density (o.d.). To provoke maximum aggregation, approximately 0.01 ml of the collagen solution was added to 1 ml of platelet-rich plasma.

[3] = Acute toxicity, single oral dose; type: in vivo; settings: mouse, in vivo, po; read-out: Acute toxicity mg/kg p.o.
Method: (§1) The acute toxicity of the substances tested was determined in white mice after oral adminstration of a single dose (observation time: 14 days).

[4] = test system: white mice; assay: Acute toxicity, single oral dose; type: in vivo; settings: white mice, 14 days observation
Method: as §1

[5] = 0.5 mg/kg i.v., initial phase before decrease

SMILES	Change of blood pressure, first value of the pair (before the slash) ([1]; 0.5 mg/kg i.v.)	Change of blood pressure, second value of the pair (after the slash) ([1]; 0.5 mg/kg i.v.) [mgm Hg]	Duration of action ([1]; 0.5 mg/kg i.v.) [min]	change in vivo at 0.5 mg/kg ([1]; 0.5 mg/kg i.v.) [%]	EC50 [2] [nM]	LD50 at 336 h [3] [mg/kg]	animals died ([4]; 600 mg/kg p.o.)	duration of decrease of blood pressure ([1]; 0.5 mg/kg i.v., decrease after 1 minute) [min]	initial increase of blood pressure, first value of the pair [1, 5] [mgm Hg]	initial increase of blood pressure, second value of the pair [1, 5] [mgm Hg]	animals died ([4]; 250 mg/kg p.o.)	Change of blood pressure, first value of the pair (before the slash) ([1]; 0.1 mg/kg i.v.) [mgm Hg]	Change of blood pressure, second value of the pair (after the slash) ([1]; 0.1 mg/kg i.v.) [mgm Hg]	Duration of action ([1]; 0.1 mg/kg i.v.) [min]	change in vivo at 0.1 mg/kg ([1]; 0.1 mg/kg i.v.) [%]	animals died ([4]; 450 mg/kg p.o.)
COc1ccc(-c2nc3cc(C4=NNC(=O)C(C)C4)ccc3[nH]2)c(OC)c1 (stereo not drawn) [O, 2-(2,4-Dimethoxy-phenyl)-5(6)-(4-methyl-3-oxo-4,5-dihydro-2H-6-pyridazinyl)-benzimidazole, reference compound]	+15 mgm Hg	6	2	10	–	–	–	–	–	–	–	–	–	–	–	–
COc1ccc(-c2nc3cc(C4=NNC(=O)CC4C)ccc3n2C)cc1 (stereo not drawn) [K, 1-Methyl-2-(4-methoxy-phenyl)-5-(5-methyl-3-oxo-4,5-dihydro-2H-6-pyridazinyl)-benzimidazole]	-28 mgm Hg	-34	> 40	50	–	–	–	–	–	–	–	–	–	–	–	–
Cc1nc2cc(C3=NNC(=O)CC3C)ccc2n1CCC(C)C (stereo not drawn) [L, 1-(3-Methyl-butyl)-2-methyl-5-(5-methyl-3-oxo-4,5-dihydro-2H-6-pyridazinyl)-benzimidazole]	–	–	–	–	50	–	–	–	–	–	–	–	–	–	–	–
Cc1ccc(-c2nc3cc(C4=NNC(=O)CC4C)ccc3[nH]2)cc1 (stereo not drawn) [H, 2-(4-Methyl-phenyl)-5(6)-(5-methyl-3-oxo-4,5-dihydro-2H-6-pyridazinyl)-benzimidazole]	-10 mgm Hg	-10	> 69	118	–	> 600	0 out of 6	> 50	33	18	–	–	–	–	–	–
Cc1nc2cc(C3=NNC(=O)C(C)C3)ccc2[nH]1 (stereo not drawn) [N, 2-Methyl-5(6)-(4-methyl-3-oxo-4,5-dihydro-2H-6-pyridazinyl)-benzimidazole, reference compound]	–	3	22	23	1000	> 250	–	–	–	–	0 out of 10	–	–	–	–	–
Cc1nc2cc(C3=NNC(=O)CC3C)ccc2[nH]1 (stereo not drawn) [Compound A, 2-Methyl-5(6)-(5-methyl-3-oxo-4,5-dihydro-2H-6-pyridazinyl)-benzimidazole]	-35 mgm Hg	-42	> 187	116	10	> 600	1 out of 3	–	–	–	–	-26	-24	> 24	53	–
CCCC(C)c1nc2cc(C3=NNC(=O)CC3C)ccc2[nH]1 (stereo not drawn) [I, 2-(2-Pentyl)-5(6)-(5-methyl-3-oxo-4,5-dihydro-2H-6-pyridazinyl)-benzimidazole hydrochloride]	-28 mgm Hg	-33	> 52	103	–	–	–	–	–	–	–	-10	-13	> 53	83	–
CC1CC(=O)NN=C1c1ccc2[nH]c(C(F)(F)F)nc2c1 (stereo not drawn) [B, 2-Trifluoromethyl-5(6)-(5-methyl-3-oxo-4,5-dihydro-2H-6-pyridazinyl)-benzimidazole]	-49 mgm Hg	-43	> 99	143	100	> 450	–	–	–	–	–	-65	-35	> 55	91	0 out of 6
